Experimental data published in US20140018416A1, “THERAPEUTIC AGENT FOR CORNEAL SENSORY NERVE DAMAGE CONTAINING SEMAPHORIN INHIBITOR AS ACTIVE INGREDIENT” (DAINIPPON SUMITOMO PHARMA CO., LTD, priority 2011, published 2014).
pIC50: −log10 of the molar value. Like-named read-outs stand apart in the source and are kept apart here.

Tests used:
[1] = Change over time in stability in PBS (phosphate buffer); assay type: physicochemical; settings: 100 μg/ml in PBS, 37° C.
Procedure: Vinaxanthone (SPF-3059-5) and SPF-3059-1 were each dissolved in PBS (Dulbecco's PBS(-)) to a concentration of 100 μg/ml. The obtained solutions were preserved at 37° C., and the amount of the agent remaining in the solution was quantified by HPLC in individual time points from initiation of the preservation until 4 weeks after initiation of the preservation, so that a change over time in the remaining percentages was examined. The same HPLC conditions as those of Example 10 were applied.

[2] = biological target: T1, mouse semaphorin 3A (Sema3A) (Mus musculus, UniProt O08665); assay: Inhibitory activity on collapse activity of Sema3A (growth cone retraction, chicken embryo dorsal root ganglion); assay type: cell-based; settings: for IC50: read-out: IC50 value obtained by the in vitro experiment (inhibitory activity on the collapse activity of Sema3A in Example 4) (converted)
T1 sequence (O08665 21-772): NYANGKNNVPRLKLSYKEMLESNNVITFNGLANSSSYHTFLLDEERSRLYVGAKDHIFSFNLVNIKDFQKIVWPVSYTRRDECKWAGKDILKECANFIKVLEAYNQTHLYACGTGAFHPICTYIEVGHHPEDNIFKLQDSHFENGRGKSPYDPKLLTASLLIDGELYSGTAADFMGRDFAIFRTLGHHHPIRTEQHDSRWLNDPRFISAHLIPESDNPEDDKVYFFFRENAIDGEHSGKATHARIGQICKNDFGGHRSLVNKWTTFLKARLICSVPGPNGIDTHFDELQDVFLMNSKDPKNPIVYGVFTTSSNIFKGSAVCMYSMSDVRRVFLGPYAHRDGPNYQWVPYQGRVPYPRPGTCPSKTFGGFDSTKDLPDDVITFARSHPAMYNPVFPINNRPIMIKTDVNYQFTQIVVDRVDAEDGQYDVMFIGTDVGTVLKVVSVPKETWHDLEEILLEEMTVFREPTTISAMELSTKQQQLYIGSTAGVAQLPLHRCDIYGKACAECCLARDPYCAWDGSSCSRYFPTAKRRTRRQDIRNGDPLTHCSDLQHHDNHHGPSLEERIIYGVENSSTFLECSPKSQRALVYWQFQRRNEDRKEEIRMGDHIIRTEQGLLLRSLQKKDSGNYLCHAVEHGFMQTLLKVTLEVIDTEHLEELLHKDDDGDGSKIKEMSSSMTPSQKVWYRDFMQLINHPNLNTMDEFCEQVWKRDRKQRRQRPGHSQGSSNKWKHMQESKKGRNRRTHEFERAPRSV
Procedure: A polylysine-coated 96-well plate (Sumitomo Bakelite Co., Ltd.) was further coated with laminin (20 μg/ml laminin, room temperature, 1 hour). Then, 100 μl of a medium (F12 medium containing 10% fetal bovine serum, 20 ng/ml NGF, 100 units/ml penicillin, and 100 μg/ml streptomycin) was added to each well. Thereafter, a dorsal root ganglion excised from a 7-day-old chicken embryo was inoculated into the resulting well, and the obtained mixture was then cultured under conditions consisting of 16 to 20 hours, 5% CO2 and 37° C. Thereafter, the compounds described in Example 3 above were each added in different concentrations to the resulting culture, and the obtained mixture was then cultured for 1 hour. Thereafter, 2 units/ml mouse semaphorin 3A (Sema3A) was added to the culture, and the obtained mixture was further cultured for 1 hour. One hour after initiation of the culture, glutaraldehyde was added to the culture, such that it promptly could reach a final concentration of 1%. Then, the obtained mixture was then left at a room temperature for 15 minutes to fix a tissue section. Thereafter, the percentage of the retracted growth cone was measured under a microscope. A well, to which no Sema3A had been added, was used as a control. The percentage of growth cone retraction in a negative control group (to which neither the compound nor Sema3A was added) was defined as (A)%; the percentage of growth cone retraction in a positive control group (to which the compound had not been added but Sema3A was added) was defined as (B)%; and the percentage of growth cone retraction in a test group (to which both the compound and Sema3A were added) was defined as (C)%. The concentration of each compound that held the formula C=(A+B)/2 was defined as an IC50 value.

[3] = Solubility (physicochemical properties of isolated compounds); settings: water, hexane, methanol, DMSO
[4] = test system: corneal sensory nerve in corneal graft; assay: Mouse keratoplasty model: regeneration of nerve fibers in corneal graft, corneal sensitivity, corneal vascularization; assay type: in vivo; settings: vs control group
Description: In this experiment, there were used genetically modified mice (P0-Cre/Floxed-EGFP mouse), in which corneal parenchymal cells, corneal endothelial cells, and nerves expressed a type of fluorescent protein, Green Fluorescent Protein (GFP), in the cornea. Using these mice, corneal sensory nerve fibers traveling in the cornea can easily be observed by removing a layer of corneal endothelial cells.
The cornea derived from a syngeneic wild-type mouse was transplanted into each of the above-mentioned mice. Thereafter, 50 ul of vinaxanthone (which had been dissolved in Rinderon (1 mg/ml betamethasone sodium phosphate injection solution) to a concentration of 0.1 mg/mL) was administered to the mice via subconjunctival injection immediately after completion of the operation and then, every two days in a total of 11 times. Only a solvent containing no drugs was administered in the same amount as described above to a control group. The removal of the suture was conducted one week after completion of the operation. Three weeks after completion of the operation, corneal sensitivity was evaluated, the mice were then subjected to euthanasia, and eyeballs were then excised. A comparison was made regarding the regeneration of nerve fibers in the corneal graft. Corneal sensitivity was evaluated by measuring corneal sensitivity in the center of the corneal graft every week after completion of the operation, using a Cochet-Bonnet corneal esthesiometer. […]
Thereafter, a total of the lengths thereof were measured, and a comparison was then made between the vinaxanthone administration group and the control group.

[5] = Retention of vinaxanthone in corneal tissues after eye drops administration; assay type: in vivo; settings: rabbit
Procedure: Rabbits (Kbs: JW, healthy, male, body weight: 2.00 to 2.49 kg) were each administered with 50 μL of a PBS solution (0.12 M phosphate buffer (pH 7.4)) of vinaxanthone (0.5, 1.5 and 5.0 mg/mL) via eye drops administration onto the cornea of the right eye, and their eyes were then closed for 30 seconds. Thereafter, 0.5, 2, and 6 hours after completion of the administration, the rabbits were subjected to euthanasia, and the excised eyeballs were then washed with a normal saline. Thereafter, the cornea was collected from each eyeball. The cornea was homogenized, and vinaxanthone was then extracted therefrom. A change over time in the content and concentration of vinaxanthone in the corneal tissues was examined using HPLC.

With CC(=O)c1c(C)c(C(=O)C2COc3cc(O)c(O)c(C(=O)O)c3C2=O)cc2c(=O)c3c(C(=O)O)c(O)c(O)cc3oc12 (centres unmarked) [SPF-3059-1, reference compound] the “Time until decomposed in an almost total amount in PBS” value [1] was “approximately 1 week”.

In the case of CC(=O)c1cc2c(=O)c3cc(O)c(O)cc3oc2c(C(C)=O)c1-c1coc2cc(O)c(O)c(C(=O)O)c2c1=O [SPF-3059-2], the pIC50 ([2]; 2 units/ml mouse Sema3A, 7-day-old chicken embryo dorsal root ganglion, read-out: IC50 (inhibition of Sema3A-induced growth cone retraction)) was > 6.73.

In the case of CC(=O)c1cc2c(=O)c3c(C(=O)O)cc(O)cc3oc2c(C(C)=O)c1-c1coc2cc(O)c(O)c(C(=O)O)c2c1=O [SPF-3059-4], the Solubility [3] was “Insoluble in water and hexane, soluble in methanol and DMSO”.

For CC(=O)c1cc2c(=O)c3c(C(=O)O)c(O)c(O)cc3oc2c(C(C)=O)c1-c1coc2cc(O)c(O)c(C(=O)O)c2c1=O [SPF-3059-5, vinaxanthone], the “Time for which the compound was stable in PBS” value [1] was ≥ 4 weeks, the “Remaining percentage in PBS” value ([1]; until 4 weeks after initiation of the preservation, HPLC) was ≥ 96% and the “Regeneration of nerve fibers in the corneal graft (total length of regenerated fibers)” value ([4]; 50 ul of 0.1 mg/mL subconjunctival injection, every two days, 11 times, three weeks after operation, p<0.01) was “promoted”. The “Corneal sensitivity in the center of the corneal graft (Cochet-Bonnet corneal esthesiometer, blink reflection)” value ([4]; three weeks after completion of the operation, p<0.01) was “improved”, the “Vascularization into the corneal graft (total length of CD31-positive newly formed blood vessels)” value ([4]; three weeks after operation, no significant difference) was “not promoted” and the IC50 ([2]; as quoted in Example 2, converted from ng/mL) was 130 nM. The IC50 ([2]; as quoted in Example 2) was 130 nM, the concentration at 6 h ([5]; male, Kbs: JW, cornea, topical, 5 mg/mL (50 μL eye drop), 50 μL eye drops of 5.0 mg/mL PBS solution, 6 hours after administration, read-out: Concentration of vinaxanthone retained in the cornea) was > 75 ng/mL and the “Time for which the concentration in the cornea considered necessary for the expression of drug effects was retained” value ([5]; eye drop of 0.5 mg/mL solution) was 0.5 h. For the same molecule, the “Transfer into the corneal tissues” value ([5]; eye drops 0.5, 1.5 and 5.0 mg/mL) was “transferred into the corneal tissues in an applied concentration/dose dependent manner”.

In the case of CC(=O)c1cc2c(=O)c3c(C(=O)O)c(O)c(O)cc3oc2c(C(C)=O)c1-c1coc2cc(O)cc(C(=O)O)c2c1=O [SPF-3059-12], the Solubility [3] was “Insoluble in water and hexane, soluble in methanol and DMSO”.

With CC(=O)c1cc2c(=O)c3c(C(=O)O)c(O)c(O)cc3oc2c(C(C)=O)c1-c1coc2cc(O)c(O)cc2c1=O [SPF-3059-24] the Solubility [3] was “Insoluble in water and hexane, soluble in methanol and DMSO”.

For CC(=O)c1cc2c(=O)c3c(C(=O)O)cc(O)cc3oc2c(C(C)=O)c1-c1coc2cc(O)c(O)cc2c1=O [SPF-3059-25], the Solubility [3] was “Insoluble in water and hexane, soluble in methanol and DMSO”.

For CC(=O)c1cc2c(=O)c3cc(O)c(O)cc3oc2c(C(C)=O)c1-c1coc2cc(O)c(O)cc2c1=O [SPF-3059-26], the Solubility [3] was “Insoluble in water and hexane, soluble in methanol and DMSO”.
